“Also recorded” adds a separate entry of the source.
How the values were obtained:
PPAR gamma-LBD = biological target: T1, PPAR gamma-LBD (Homo sapiens, UniProt P37231); assay: PPAR assay, PPARγ; type: binding; conditions: sample final concentration 100 μM; positive control rosiglitazone; FIGS. 7 and 8
T1 sequence (P37231 238-503 limits assumed): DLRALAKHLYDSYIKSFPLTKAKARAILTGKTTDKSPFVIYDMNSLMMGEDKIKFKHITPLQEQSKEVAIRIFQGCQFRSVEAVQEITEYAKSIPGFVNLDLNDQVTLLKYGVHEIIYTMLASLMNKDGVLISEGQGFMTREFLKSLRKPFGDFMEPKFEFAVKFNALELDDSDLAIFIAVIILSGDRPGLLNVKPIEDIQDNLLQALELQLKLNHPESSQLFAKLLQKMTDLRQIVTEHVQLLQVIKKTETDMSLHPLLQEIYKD

[1] = system: YPEN-1 cells (rat prostatic endothelial cell line); assay: In vitro ROS scavenging activity assay (DCFDA); type: cell-based; conditions: cells pre-treated with 50 μM SIN-1 for 1 hour; DCFDA fluorescence; positive control trolox; FIGS. 1 and 2
Experimental: YPEN-1 cells (rat prostatic endothelial cell line) was obtained from American type culture collection (ATCC, Manassas, Va., USA), and the cells were cultured by using a dulbecco's modified eagle medium (DMEM, Nissui, Tokyo, Japan) containing 2 mM L-glutamine, […], 2.5 mg/L amphotericin B, and 5% inactivated fetal bovine serum (FBS). Also, the cells were maintained at a temperature of 37° C. in a humid atmosphere-like condition containing 5% CO2 and 95% air. […] The cells were sub-cultured in 100 mm plastic flask (Corning Co., New York, USA) every two days to maintain the cell line.
2′,7′-dichlorodihydrofluorescein diacetate (DCFDA) assay method according to a conventionally known method (Chem Res Toxicol. 5: 227-231, 1992) was used. In detail, 12.5 mM DCFDA dissolved in 99.9% ethanol and 600 U/ml esterase dissolved in tertiary distilled water were stored as a stock solution at a temperature of −20° C., and a 2′,7′-dichlorodihydrofluorescein (DCFH) solution prepared by mixing 10 mM DCFDA and 6 U/ml esterase was cultured at a temperature of 22° C. for 20 minutes, and then, refrigerated in a dark place before use. […] Vascular endothelial cells that were pre-treated with 50 μM 3-morpholinosydnonimine hydrochloride (SIN-1) for 1 hour were used as a reactive oxygen generation source.

PPAR alpha-LBD = biological target: T2, PPAR alpha-LBD (Homo sapiens, UniProt Q07869); assay: PPAR assay, PPARα; conditions: for PPARα activation (competitive activation rate), compared with fenofibrate: sample final concentration 100 μM, positive control fenofibrate, FIGS. 5 and 6; for simultaneous activation of PPARα and PPARγ: summary of the PPARα and PPARγ assays, sample 100 μM
T2 sequence (Q07869 239-466 limits assumed): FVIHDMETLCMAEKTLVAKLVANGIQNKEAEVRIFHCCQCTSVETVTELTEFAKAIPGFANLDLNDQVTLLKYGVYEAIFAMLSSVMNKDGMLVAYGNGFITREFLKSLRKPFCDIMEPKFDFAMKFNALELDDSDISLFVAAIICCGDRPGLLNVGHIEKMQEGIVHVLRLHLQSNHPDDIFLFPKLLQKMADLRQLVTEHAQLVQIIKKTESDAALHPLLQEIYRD

Q: Which “PPARγ activation (competitive activation rate), compared with rosiglitazone” value (“PPARγ activation … compared with rosiglitazone” below) (PPAR gamma-LBD) does the source give for `COc1ccc(-c2nc3cc(C(F)(F)F)ccc3s2)cc1` [Compound 34, 2-(4-methoxyphenyl)-5-(trifluoromethyl)benzo[d]thiazole] here?
A: Its value is “very excellent PPARγ activation agent compared to rosiglitazone”.

Q: And the melting point?
A: The melting point was 128.8 to 130.1 °C.

Q: Which results are given for `Oc1ccc(-c2nc3cc(C(F)(F)F)ccc3s2)cc1O` [Compound 29, 4-(5-(trifluoromethyl)benzo[d]thiazol-2-yl)benzene-1,2-diol]?
A: scavenging effects on ROS generated by vascular endothelial cells, compared with trolox [1]: as high scavenging effects on ROS generated by vascular endothelial cells as trolox; melting point: 267.3 to 269.4 °C

Q: For `COC(=O)c1csc(-c2ccc(OC(C)=O)c(OC(C)=O)c2)n1` [Compound 103, 4-(4-(Methoxycarbonyl)thiazol-2-yl)-1,2-phenylene diacetate], which “scavenging effects on ROS generated by vascular endothelial cells, compared with trolox” value (“scavenging effects … compared with trolox” below) [1] is on record?
A: Its value is “as high scavenging effects on ROS generated by vascular endothelial cells as trolox”.

Q: And the melting point?
A: Its melting point is 137 to 138 °C.

Q: For `COc1ccc(-c2nc3cc(C(=O)O)ccc3[nH]2)cc1` [Compound 63, 2-(4-methoxyphenyl)-1H-benzo[d]imidazole-5-carboxylic acid], which “PPARα activation (competitive activation rate), compared with fenofibrate” value (“PPARα activation … compared with fenofibrate” below) (PPAR alpha-LBD) is on record?
A: The value was “very excellent PPARα activation agent compared to fenofibrate”.

Q: What about the “simultaneous activation of PPARα and PPARγ” value (“simultaneous activation” below) (PPAR alpha-LBD) of the same molecule?
A: The value was “simultaneously activates PPARα and PPARγ”.

Q: What about the “PPARγ activation … compared with rosiglitazone” value (PPAR gamma-LBD) of the same molecule?
A: The value was “very excellent PPARγ activation agent compared to rosiglitazone”.

Q: What about the melting point of the same molecule?
A: The melting point was 264.7 to 265.4 °C.

Q: For `CCOc1cc(-c2nc3cc(C(F)(F)F)ccc3s2)ccc1O` [Compound 32, 2-ethoxy-4-(5-(trifluoromethyl)benzo[d]thiazol-2-yl)phenol], which “PPARα activation … compared with fenofibrate” value (PPAR alpha-LBD) is on record?
A: Its value is “very excellent PPARα activation agent compared to fenofibrate”.

Q: What about the “simultaneous activation” value (PPAR alpha-LBD) of the same molecule?
A: Its value is “simultaneously activates PPARα and PPARγ”.

Q: What about the “PPARγ activation … compared with rosiglitazone” value (PPAR gamma-LBD) of the same molecule?
A: The value was “very excellent PPARγ activation agent compared to rosiglitazone”.

Q: What about the melting point of the same molecule?
A: Its melting point is 117 to 117.8 °C.

Q: For `O=C(O)c1ccc2[nH]c(-c3ccc(O)cc3O)nc2c1` [Compound 59, 2-(2,4-dihydroxyphenyl)-1H-benzo[d]imidazole-5-carboxylic acid], which “PPARα activation … compared with fenofibrate” value (PPAR alpha-LBD) is on record?
A: Its value is “very excellent PPARα activation agent compared to fenofibrate”.

Q: What about the “simultaneous activation” value (PPAR alpha-LBD) of the same molecule?
A: Its value is “simultaneously activates PPARα and PPARγ”.

Q: What about the “PPARγ activation … compared with rosiglitazone” value (PPAR gamma-LBD) of the same molecule?
A: Its value is “very excellent PPARγ activation agent compared to rosiglitazone”.

Q: What about the melting point of the same molecule?
A: The melting point was greater than 300 °C.

Q: Which results are given for `Oc1ccc(-c2nc3cc(Cl)ccc3s2)cc1Br` [Compound 95, 2-bromo-4-(5-chlorobenzo[d]thiazol-2-yl)phenol]?
A: PPARα activation (competitive activation rate), compared with fenofibrate (PPAR alpha-LBD): very excellent PPARα activation agent compared to fenofibrate; simultaneous activation of PPARα and PPARγ (PPAR alpha-LBD): simultaneously activates PPARα and PPARγ; PPARγ activation (competitive activation rate), compared with rosiglitazone (PPAR gamma-LBD): very excellent PPARγ activation agent compared to rosiglitazone; melting point: 226 to 228.1 °C

Q: For `CC(C)(C)[Si](C)(C)Oc1ccc2c(-c3ccccc3)cc(=O)oc2c1O[Si](C)(C)C(C)(C)C` [Compound 100, 7,8-bis(tert-butyldimethylsilyloxy)-4-phenyl-2H-chromen-2-one], which “scavenging effects … compared with trolox” value [1] is on record?
A: The value was “as high scavenging effects on ROS generated by vascular endothelial cells as trolox”.

Q: For `O=C(O)[C@@H]1CSC(c2ccc(O)c(O)c2)N1` (mixture of isomers) [Compound 2, (2R/S,4R)-2-(3,4-dihydroxyphenyl)thiazolidine-4-carboxylic acid], which “scavenging effects … compared with trolox” value [1] is on record?
A: The value was “as high scavenging effects on ROS generated by vascular endothelial cells as trolox”.

Q: What about the melting point of the same molecule?
A: The melting point was 195.5 to 196.8 °C.

Q: Which “scavenging effects … compared with trolox” value [1] does the source give for `Oc1ccc(C2NCCS2)cc1O` (centres unmarked) [Compound 72, 4-(Thiazolidin-2-yl)benzene-1,2-diol] here?
A: Its value is “as high scavenging effects on ROS generated by vascular endothelial cells as trolox”.

Q: What does the source list for `COc1cc(-c2nc3ccccc3s2)cc(OC)c1O` [Compound 25, 4-(benzo[d]thiazol-2-yl)-2,6-dimethoxyphenol]?
A: PPARα activation (competitive activation rate), compared with fenofibrate (PPAR alpha-LBD): very excellent PPARα activation agent compared to fenofibrate; simultaneous activation of PPARα and PPARγ (PPAR alpha-LBD): simultaneously activates PPARα and PPARγ; PPARγ activation (competitive activation rate), compared with rosiglitazone (PPAR gamma-LBD): very excellent PPARγ activation agent compared to rosiglitazone; melting point: 153.5 to 156.1 °C

Q: Which “scavenging effects … compared with trolox” value [1] does the source give for `Oc1ccc(-c2nc3ccccc3s2)cc1O` [Compound 14, 4-(benzo[d]thiazol-2-yl)benzene-1,2-diol] here?
A: The value was “as high scavenging effects on ROS generated by vascular endothelial cells as trolox”.

Q: For `COc1cc(-c2nc3cc(C(F)(F)F)ccc3s2)cc(OC)c1O` [Compound 40, 2,6-dimethoxy-4-(5-(trifluoromethyl)benzo[d]thiazol-2-yl)phenol], which “PPARα activation … compared with fenofibrate” value (PPAR alpha-LBD) is on record?
A: The value was “very excellent PPARα activation agent compared to fenofibrate”.

Q: What about the “simultaneous activation” value (PPAR alpha-LBD) of the same molecule?
A: Its value is “simultaneously activates PPARα and PPARγ”.

Q: What about the “PPARγ activation … compared with rosiglitazone” value (PPAR gamma-LBD) of the same molecule?
A: Its value is “very excellent PPARγ activation agent compared to rosiglitazone”.

Q: And the melting point?
A: Its melting point is 220.6 to 222.6 °C.

Q: Which “PPARα activation … compared with fenofibrate” value (PPAR alpha-LBD) does the source give for `COc1cc(-c2nc3cc(C(F)(F)F)ccc3s2)ccc1O` [Compound 31, 2-methoxy-4-(5-(trifluoromethyl)benzo[d]thiazol-2-yl)phenol] here?
A: Its value is “very excellent PPARα activation agent compared to fenofibrate”.

Q: And the “simultaneous activation” value (PPAR alpha-LBD)?
A: The value was “simultaneously activates PPARα and PPARγ”.

Q: What about the “PPARγ activation … compared with rosiglitazone” value (PPAR gamma-LBD) of the same molecule?
A: The value was “very excellent PPARγ activation agent compared to rosiglitazone”.

Q: What about the melting point of the same molecule?
A: Its melting point is 155.7 to 159.9 °C.

Q: With `COc1cc(C2NCCS2)cc(OC)c1O` (centres unmarked) [Compound 80, 2,6-dimethoxy-4-(thiazolidin-2-yl)phenol] as the molecule, how does the “scavenging effects … compared with trolox” value [1] read?
A: The value was “as high scavenging effects on ROS generated by vascular endothelial cells as trolox”.

Q: For `Oc1ccc(-c2nc3cc(C(F)(F)F)ccc3s2)cc1` [Compound 28, 4-(5-(trifluoromethyl)benzo[d]thiazol-2-yl)phenol], which “PPARα activation … compared with fenofibrate” value (PPAR alpha-LBD) is on record?
A: The value was “very excellent PPARα activation agent compared to fenofibrate”.

Q: And the “simultaneous activation” value (PPAR alpha-LBD)?
A: The value was “simultaneously activates PPARα and PPARγ”.

Q: And the “PPARγ activation … compared with rosiglitazone” value (PPAR gamma-LBD)?
A: Its value is “very excellent PPARγ activation agent compared to rosiglitazone”.

Q: And the melting point?
A: The melting point was 187.2 to 188.9 °C.

Q: With `COc1cc(-c2nc3ccccc3s2)cc(OC)c1OC` [Compound 24, 2-(3,4,5-trimethoxyphenyl)benzo[d]thiazole] as the molecule, how does the “PPARα activation … compared with fenofibrate” value (PPAR alpha-LBD) read?
A: The value was “very excellent PPARα activation agent compared to fenofibrate”.

Q: And the “simultaneous activation” value (PPAR alpha-LBD)?
A: Its value is “simultaneously activates PPARα and PPARγ”.

Q: And the “PPARγ activation … compared with rosiglitazone” value (PPAR gamma-LBD)?
A: Its value is “very excellent PPARγ activation agent compared to rosiglitazone”.

Q: And the melting point?
A: The melting point was 149.5 to 151.1 °C.

Q: With `CCOc1cc(-c2nc3cc(Cl)ccc3s2)ccc1O` [Compound 86, 4-(5-chlorobenzo[d]thiazol-2-yl)-2-ethoxyphenol] as the molecule, how does the “PPARα activation … compared with fenofibrate” value (PPAR alpha-LBD) read?
A: The value was “very excellent PPARα activation agent compared to fenofibrate”.

Q: What about the “simultaneous activation” value (PPAR alpha-LBD) of the same molecule?
A: Its value is “simultaneously activates PPARα and PPARγ”.

Q: What about the “PPARγ activation … compared with rosiglitazone” value (PPAR gamma-LBD) of the same molecule?
A: The value was “very excellent PPARγ activation agent compared to rosiglitazone”.

Q: What about the melting point of the same molecule?
A: The melting point was 102.1 to 103.4 °C.

Q: What does the source list for `COc1ccc(-c2nc3ccccc3s2)cc1OC` [Compound 20, 2-(3,4-dimethoxyphenyl)benzo[d]thiazole]?
A: PPARα activation (competitive activation rate), compared with fenofibrate (PPAR alpha-LBD): very excellent PPARα activation agent compared to fenofibrate; simultaneous activation of PPARα and PPARγ (PPAR alpha-LBD): simultaneously activates PPARα and PPARγ; PPARγ activation (competitive activation rate), compared with rosiglitazone (PPAR gamma-LBD): very excellent PPARγ activation agent compared to rosiglitazone; melting point: 135 to 137.2 °C

Q: What does the source list for `Oc1ccc(-c2nc3ccccc3s2)cc1Br` [Compound 26, 4-(benzo[d]thiazol-2-yl)-2-bromophenol]?
A: PPARα activation (competitive activation rate), compared with fenofibrate (PPAR alpha-LBD): the most excellent PPARα activation agent; also recorded: very excellent PPARα activation agent compared to fenofibrate; simultaneous activation of PPARα and PPARγ (PPAR alpha-LBD): simultaneously activates PPARα and PPARγ; PPARγ activation (competitive activation rate), compared with rosiglitazone (PPAR gamma-LBD): the most excellent PPARγ activation agent; also recorded: very excellent PPARγ activation agent compared to rosiglitazone
